# According to patent US10947242B2, “[1,2,4]triazolo[1,5and#8208;A]pyrimidine compounds as PDE2 inhibitors” (Janssen Pharmaceutica NV, priority 2016, dated 2021):
# Where two headings read alike, the source gives them in different places.
# Experiments:
# PDE2A = molecular target: T1, PDE2A (Rattus norvegicus, UniProt Q01062); test: PDE2 occupancy by test compounds, ex-vivo autoradiography with [3H]B-17a; type: in vivo, Male Wistar rats; settings: for ED50: read-out: PDE Occupancy ED50
# T1 construct: Twenty μm-thick striatal sections were cut; from tissue; host or cells: rat brain, striatal sections
# T1 sequence (Q01062 1-928): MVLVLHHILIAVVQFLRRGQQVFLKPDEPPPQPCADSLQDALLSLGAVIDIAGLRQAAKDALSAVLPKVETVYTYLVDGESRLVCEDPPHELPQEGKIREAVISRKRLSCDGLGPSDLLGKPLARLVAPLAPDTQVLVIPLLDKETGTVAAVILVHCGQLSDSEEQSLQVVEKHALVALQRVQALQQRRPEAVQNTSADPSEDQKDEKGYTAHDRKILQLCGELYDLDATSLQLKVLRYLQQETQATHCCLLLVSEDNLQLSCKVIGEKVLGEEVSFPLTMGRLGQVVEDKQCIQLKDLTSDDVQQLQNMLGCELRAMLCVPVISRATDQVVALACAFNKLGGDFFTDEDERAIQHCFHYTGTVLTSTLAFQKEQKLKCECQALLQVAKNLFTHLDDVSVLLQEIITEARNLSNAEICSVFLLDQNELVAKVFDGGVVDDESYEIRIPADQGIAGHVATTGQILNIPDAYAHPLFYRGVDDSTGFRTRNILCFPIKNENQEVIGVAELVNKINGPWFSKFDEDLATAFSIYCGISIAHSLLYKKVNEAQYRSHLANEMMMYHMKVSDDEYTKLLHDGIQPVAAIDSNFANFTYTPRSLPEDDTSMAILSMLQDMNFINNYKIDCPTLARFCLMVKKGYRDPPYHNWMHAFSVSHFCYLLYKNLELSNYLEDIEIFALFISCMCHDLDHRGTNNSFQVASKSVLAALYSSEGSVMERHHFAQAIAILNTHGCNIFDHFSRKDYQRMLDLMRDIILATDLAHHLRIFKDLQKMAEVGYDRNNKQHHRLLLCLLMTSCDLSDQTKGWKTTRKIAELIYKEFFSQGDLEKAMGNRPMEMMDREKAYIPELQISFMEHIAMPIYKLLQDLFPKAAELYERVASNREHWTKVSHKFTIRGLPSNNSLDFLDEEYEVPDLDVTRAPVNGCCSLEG
# [1] = molecular target: T2, Human recombinant PDE2A (hPDE2A) (Homo sapiens, UniProt O00408); test: In vitro assay PDE2A (SPA, 3H-cGMP hydrolysis); type: biochemical; settings: for Emax: read-out: hPDE2A Emax
# T2 construct: His tag (inferred from metal chelate purification); made in house; host or cells: Sf9 insect cells (baculovirus)
# [2] = molecular target: T3, Human recombinant PDE10A (hPDE10A) (Homo sapiens, UniProt Q9Y233); test: In vitro assay PDE10A, human clone (SPA, 3H-cAMP hydrolysis); type: biochemical
# T3 construct: His tag (inferred from metal chelate purification); made in house; host or cells: Sf9 insect cells (baculovirus)
# In short: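 Hydrolysis of 3H-cAMP (60 nM cAMP, 0.008 μCi tracer) proceeded for 60 min at room temperature, with the product detected by SPA bead scintillation counting. The enzyme was hPDE10A from baculovirus-infected Sf9 cells in Tris pH 7.8 buffer with MgCl2 and EGTA, and compounds were at 1% DMSO final. Blanks lacked enzyme.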
# [3] = molecular target: T4, Human recombinant PDE3A (hPDE3A) (Homo sapiens, UniProt Q14432); test: In vitro assay PDE3A (SPA, 3H-cAMP hydrolysis); type: biochemical; settings: for IC50: hPDE3B pIC50, read-out: pIC50 (converted); for Emax: read-out: hPDE3B Emax, read-out: Emax;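 for all read-outs here: the method names PDE3A and the table heading PDE3B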
# T4 construct: purchased Scottish Biomedical; host or cells: Sf9 insect cells
# In short: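 Radiometric SPA measuring [3H]-cAMP hydrolysis (0.4 μM cAMP, 2.4 μCi/ml) over 60 min at room temperature, in Tris pH 7.8 buffer with MgCl2 and EGTA, 1% DMSO. Enzyme: recombinant human brain PDE3A expressed in Sf9 cells, used as partially purified lysate. Counts compared with enzyme-free blanks and vehicle controls.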
# [4] = po, 10 mg/kg, route PO (oral), percentage receptor occupancy, ex-vivo autoradiography, striatum
# [5] = hPDE2A pIC50, human recombinant PDE2A, 10 μM cGMP substrate
# [6] = human clone (h), default, read-out: hPDE10A2 Emax
# [7] = human clone (h), default, read-out: hPDE10A2 pIC50 (converted)
# [8] = route PO (oral), drug dose producing 50% receptor occupancy
# [9] = sc, 10 mg/kg, route SC (subcutaneous), percentage receptor occupancy, ex-vivo autoradiography, striatum
# [10] = human recombinant PDE2A, 10 μM cGMP substrate, read-out: hPDE2A pIC50 (converted)
# [11] = read-out: hPDE2A pIC50 (converted)
# [12] = 10 mg/kg, route PO (oral), percentage receptor occupancy, ex-vivo autoradiography, striatum
# [13] = human clone by default (no (r) mark), read-out: hPDE10A2 or rPDE10A2 Emax
# [14] = human clone by default (no (r) mark), read-out: hPDE10A2 or rPDE10A2 pIC50 (converted)
# T2 sequence (O00408 whole entry): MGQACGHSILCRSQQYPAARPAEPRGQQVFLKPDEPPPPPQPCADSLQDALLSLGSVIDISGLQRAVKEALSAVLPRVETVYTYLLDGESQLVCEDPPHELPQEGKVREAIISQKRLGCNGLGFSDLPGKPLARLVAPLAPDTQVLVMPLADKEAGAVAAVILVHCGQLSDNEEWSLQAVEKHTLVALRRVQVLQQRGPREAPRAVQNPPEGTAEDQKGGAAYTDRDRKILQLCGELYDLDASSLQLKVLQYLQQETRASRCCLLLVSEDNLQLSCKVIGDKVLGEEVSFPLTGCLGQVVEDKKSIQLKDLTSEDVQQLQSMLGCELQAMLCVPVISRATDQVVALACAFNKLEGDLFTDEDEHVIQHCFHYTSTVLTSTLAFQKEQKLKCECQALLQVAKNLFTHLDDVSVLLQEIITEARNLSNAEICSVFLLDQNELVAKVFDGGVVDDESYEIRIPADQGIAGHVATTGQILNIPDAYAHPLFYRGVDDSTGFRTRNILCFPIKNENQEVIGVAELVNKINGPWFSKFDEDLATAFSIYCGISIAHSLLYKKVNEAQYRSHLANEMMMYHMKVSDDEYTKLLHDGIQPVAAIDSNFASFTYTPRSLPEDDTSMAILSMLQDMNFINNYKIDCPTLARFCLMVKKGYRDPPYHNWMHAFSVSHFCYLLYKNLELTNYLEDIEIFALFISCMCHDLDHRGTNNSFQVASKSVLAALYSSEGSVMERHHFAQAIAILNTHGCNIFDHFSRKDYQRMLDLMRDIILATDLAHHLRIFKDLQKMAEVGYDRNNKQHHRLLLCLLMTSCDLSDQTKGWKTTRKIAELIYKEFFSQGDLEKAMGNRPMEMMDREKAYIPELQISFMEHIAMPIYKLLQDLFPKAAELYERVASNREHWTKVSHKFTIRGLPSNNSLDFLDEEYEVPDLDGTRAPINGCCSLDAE
# T4 sequence (Q14432 whole entry): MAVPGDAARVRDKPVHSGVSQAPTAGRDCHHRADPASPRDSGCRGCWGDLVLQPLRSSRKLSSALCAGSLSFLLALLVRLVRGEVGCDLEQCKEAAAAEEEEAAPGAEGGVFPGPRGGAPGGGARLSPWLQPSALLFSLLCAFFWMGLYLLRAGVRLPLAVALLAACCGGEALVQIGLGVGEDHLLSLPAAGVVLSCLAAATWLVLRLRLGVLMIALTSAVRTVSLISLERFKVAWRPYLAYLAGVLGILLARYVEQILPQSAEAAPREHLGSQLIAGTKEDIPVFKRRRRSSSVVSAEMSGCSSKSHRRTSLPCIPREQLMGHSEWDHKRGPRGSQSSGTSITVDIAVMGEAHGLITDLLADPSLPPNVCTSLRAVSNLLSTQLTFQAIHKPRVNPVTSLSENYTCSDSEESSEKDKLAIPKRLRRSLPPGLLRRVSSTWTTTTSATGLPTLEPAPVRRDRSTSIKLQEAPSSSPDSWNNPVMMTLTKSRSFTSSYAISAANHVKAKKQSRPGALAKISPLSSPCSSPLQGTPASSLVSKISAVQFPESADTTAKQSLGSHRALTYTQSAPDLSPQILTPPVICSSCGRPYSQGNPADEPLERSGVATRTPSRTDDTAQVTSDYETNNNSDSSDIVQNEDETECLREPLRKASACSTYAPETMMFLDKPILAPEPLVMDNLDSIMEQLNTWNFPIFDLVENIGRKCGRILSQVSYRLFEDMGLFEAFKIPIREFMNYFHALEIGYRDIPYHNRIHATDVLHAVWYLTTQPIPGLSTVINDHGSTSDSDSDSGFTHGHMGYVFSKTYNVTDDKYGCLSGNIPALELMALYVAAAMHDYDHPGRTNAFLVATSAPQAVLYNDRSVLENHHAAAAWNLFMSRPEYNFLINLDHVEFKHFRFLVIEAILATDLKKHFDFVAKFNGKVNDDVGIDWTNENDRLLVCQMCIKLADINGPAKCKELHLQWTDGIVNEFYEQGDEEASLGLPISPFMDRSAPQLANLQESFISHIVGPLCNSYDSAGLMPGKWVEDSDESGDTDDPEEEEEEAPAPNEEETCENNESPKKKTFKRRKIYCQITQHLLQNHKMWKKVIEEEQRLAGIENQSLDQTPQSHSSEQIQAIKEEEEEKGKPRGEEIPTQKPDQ
# T3 sequence (Q9Y233 267-1055): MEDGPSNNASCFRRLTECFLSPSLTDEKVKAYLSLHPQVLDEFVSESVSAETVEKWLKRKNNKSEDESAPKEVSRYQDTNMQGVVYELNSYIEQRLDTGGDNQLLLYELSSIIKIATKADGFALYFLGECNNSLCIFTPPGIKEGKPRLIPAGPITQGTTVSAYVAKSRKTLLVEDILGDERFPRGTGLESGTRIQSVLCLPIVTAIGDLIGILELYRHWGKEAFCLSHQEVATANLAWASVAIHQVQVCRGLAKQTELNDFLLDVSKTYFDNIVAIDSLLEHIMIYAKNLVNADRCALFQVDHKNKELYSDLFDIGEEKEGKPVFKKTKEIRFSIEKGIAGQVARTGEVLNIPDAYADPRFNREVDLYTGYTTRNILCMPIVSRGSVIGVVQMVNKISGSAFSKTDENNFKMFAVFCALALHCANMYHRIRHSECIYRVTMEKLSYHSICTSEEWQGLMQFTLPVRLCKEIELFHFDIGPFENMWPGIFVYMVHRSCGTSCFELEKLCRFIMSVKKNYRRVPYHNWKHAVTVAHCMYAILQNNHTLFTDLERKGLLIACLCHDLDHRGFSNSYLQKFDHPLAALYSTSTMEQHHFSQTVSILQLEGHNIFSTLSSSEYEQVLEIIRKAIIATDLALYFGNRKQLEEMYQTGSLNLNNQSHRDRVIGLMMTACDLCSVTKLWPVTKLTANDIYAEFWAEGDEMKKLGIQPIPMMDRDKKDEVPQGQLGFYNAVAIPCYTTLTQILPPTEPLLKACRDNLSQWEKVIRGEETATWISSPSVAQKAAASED
SMILES,receptor occupancy at 10 mg/kg (PDE2A; [4]) [%],IC50 ([1]; hPDE2A pIC50) [µM],"IC50 [1, 5] [µM]",Emax [1] [%],"Emax [2, 6] [%]","IC50 [2, 7] [µM]",IC50 [3] [µM],Emax [3] [%],melting point [°C],ED50 (PDE2A; [8]) [mg/kg],receptor occupancy at 10 mg/kg (PDE2A; [9]) [%],"IC50 [1, 10] [µM]",Emax ([1]; human recombinant PDE2A) [%],"IC50 [1, 11] [µM]",receptor occupancy at 10 mg/kg (PDE2A; [12]) [%],ED50 (PDE2A; po) [mg/kg],"Emax [2, 13] [%]","IC50 [2, 14] [µM]",PDE2 Occupancy at 10 mg/kg (PDE2A; [12])
Cc1cc(Cl)cc(C(=O)N2CC[C@@H](C)[C@H](c3cc(C(F)F)nc4ncnn34)C2)c1 [Compound 102],-4,0.000676,0.000676,100,95,0.0263,> 1,44,215.44,,,,,,,,,,
Cc1cc(C(=O)N2CC[C@@H](C)[C@H](c3cc(C(F)F)nc4ncnn34)C2)cc(C(F)(F)F)n1 [Compound 132],,,,101,98,0.2,> 10,46,116.57,5,76,0.00251,101,0.00251,,,,,
O=C(c1ccc(Cl)c(Cl)c1)N1[C@H]2CC[C@H](c3cc(C(F)F)nc4ncnn34)[C@@H]1CC2 [Compound 356],,,,99,,,5.89,65,187.93,,,,,0.00537,51,5.55,92,0.933,
CCn1ccc2cc(C(=O)N3[C@H]4CC[C@H](c5cc(C(F)F)nc6ncnn56)[C@@H]3CC4)ccc21 [Compound 363],,,,99,,,0.617,97,221.75,,,,,0.000275,-11,,98,0.178,
COc1cc(C(=O)N2CC[C@@H](C)[C@H](c3cc(C)nc4ncnn34)C2)cc(Cl)n1 [Compound 22],18,0.00234,0.00234,100,99,0.0158,1.51,87,217.82,,,,,,,,,,30
C[C@@H]1CCN(C(=O)c2cn(C)c3ccccc23)C[C@H]1c1cc(C(F)F)nc2ncnn12 [Compound 328],-18,,,100,,,1.48,90,247.48,,,,,0.000631,,,100,0.0617,
Cc1cc(C(=O)N2CC[C@@H](C)[C@H](c3cc(C(F)F)nc4ncnn34)C2)cc(Cl)c1F [Compound 129],21,0.00229,0.00229,101,99,0.0912,1.95,85,140.78,,,,,,,,,,
Cc1cc(C(=O)N2CC[C@@H](C)[C@H](c3cc(C(F)F)nc4ncnn34)C2)cc(C(F)F)n1 [Compound 321],73,0.00219,,101,,,8.13,45,137.5,,,,,,,3.37,97,0.309,
O=C(c1cnc2c(Cl)cccc2c1)N1[C@H]2CC[C@H](c3cc(C(F)F)nc4ncnn34)[C@@H]1CC2 [Compound 310],,,,100,,,3.89,78,240.9,,,,,0.00141,52,9.6,95,0.398,
C[C@@H]1CCN(C(=O)c2cc3ccccc3o2)C[C@H]1c1cc(C(F)F)nc2ncnn12 [Compound 69],0,,,102,100,0.0457,0.38,95,209.73,,,0.000407,102,0.000407,,,,,
C[C@@H]1CCN(C(=O)c2ccc(OC(F)F)c(F)c2)C[C@H]1c1cc(C(F)F)nc2ncnn12 [Compound 192],-13,,,99,99,0.0724,0.724,95,110.16,,,0.00933,99,0.00933,,,,,
COc1cc(C(=O)N2CC[C@@H](C)[C@H](c3cc(C(F)F)nc4ncnn34)C2)cc(Cl)n1 [Compound 108],65,,,100,99,0.0525,2.69,80,151.39,4.8,,0.000912,100,0.000912,,,,,
Cc1cc(C(=O)N2CC[C@@H](C)[C@H](c3cc(C(F)F)nc4ncnn34)C2)cnc1C [Compound 49],,,,99,95,0.513,5.75,42,263.81,,12,0.00209,99,0.00209,,,,,
